Our source for the IC50, EC50 and AC50 values is ChEMBL document CHEMBL1201862, “PubChem BioAssay data set” (2004).

Data set [1] can be described thus: insulin promoter down-regulators in MIN6 cells, imaging, high-content screening, mouse beta cells (AID 1628). Format: functional.
The nature of data set [2]: cytotoxicity in MIN6 insulinoma cells, dose response, cytotoxicity control, cell-based, mouse insulinoma (AID 2122).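 Also: confirmatory high-throughput counterscreen run to flag cytotoxic compounds; mouse MIN-6 beta cells carrying an insulin promoter eGFP reporter.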 Type of data set: functional.
Data set [3] relates to Streptococcus sp. 'group A'. Briefly: growth inhibition of control SK(-) GAS strain, dose response, counter-screen for streptokinase expression inhibitor project, luminescence, kanamycin, BacTiterGlo, confirmation (AID 1900). Type of data set: functional, organism-based. For orientation: The purpose of a counterscreen is to sort out artefacts and off-target activity.
A further data set concerns the target T1, Streptokinase A (Streptococcus pyogenes serotype M1, UniProt P10520).
T1 sequence (P10520 whole entry): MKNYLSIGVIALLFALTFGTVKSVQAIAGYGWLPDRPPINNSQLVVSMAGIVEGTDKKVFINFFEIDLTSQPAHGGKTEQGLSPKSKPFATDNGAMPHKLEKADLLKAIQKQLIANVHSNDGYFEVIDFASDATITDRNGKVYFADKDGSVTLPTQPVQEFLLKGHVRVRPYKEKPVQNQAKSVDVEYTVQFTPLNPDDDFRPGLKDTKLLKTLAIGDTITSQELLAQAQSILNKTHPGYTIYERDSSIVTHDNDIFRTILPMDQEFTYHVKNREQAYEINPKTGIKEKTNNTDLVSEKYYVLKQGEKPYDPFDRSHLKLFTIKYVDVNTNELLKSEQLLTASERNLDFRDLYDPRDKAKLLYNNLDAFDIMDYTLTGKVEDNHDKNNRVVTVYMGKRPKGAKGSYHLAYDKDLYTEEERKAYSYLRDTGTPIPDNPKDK
The data set can be described thus: S. pyogenes streptokinase expression inhibitors, potency, dose response, plasminogen activation absorbance, OD405 (AID 1914).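 Also: secreted streptokinase activity via plasminogen activation per viability signal from cell pellet.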 Type of data set: functional, Streptococcus pyogenes M1 GAS.

For data set [4], the target named is T2, Calpain-2 catalytic subunit (Sus scrofa, UniProt P43367).
T2 sequence (P43367 whole entry): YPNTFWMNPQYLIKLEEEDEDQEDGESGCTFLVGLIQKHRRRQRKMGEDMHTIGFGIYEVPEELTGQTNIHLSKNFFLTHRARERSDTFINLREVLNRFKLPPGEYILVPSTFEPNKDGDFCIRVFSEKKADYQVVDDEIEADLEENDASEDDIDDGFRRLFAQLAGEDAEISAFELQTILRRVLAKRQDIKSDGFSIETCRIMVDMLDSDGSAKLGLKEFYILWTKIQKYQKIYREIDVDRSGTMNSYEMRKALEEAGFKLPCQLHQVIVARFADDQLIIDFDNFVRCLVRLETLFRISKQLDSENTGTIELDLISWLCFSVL
Briefly: pig calpain II inhibitor potency, dose response, biochemical, fluorogenic peptide substrate (AID 1420). Format: functional.

The next data set has as its system Streptococcus. Briefly: Group A Streptococcus viability loss, dose response, counter-screen for streptokinase expression inhibitor project, luminescence, BacTiterGlo (AID 1915).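 Also: potency for reduction of bacterial viability or growth.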 Format: functional, organism-based.
The next data set deals with Escherichia coli. The data set can be described thus: microbe, parasite or virus in culture.
In data set [5] the target is T3, SUMO-activating enzyme (Homo sapiens, UniProt Q9UBT2). Briefly: SUMOylation inhibitor hit validation, confirmation, SUMOylation inhibitor project, biochemical, AlphaScreen (AID 2018). Format: functional.
T3 sequence (Q9UBE0 whole entry): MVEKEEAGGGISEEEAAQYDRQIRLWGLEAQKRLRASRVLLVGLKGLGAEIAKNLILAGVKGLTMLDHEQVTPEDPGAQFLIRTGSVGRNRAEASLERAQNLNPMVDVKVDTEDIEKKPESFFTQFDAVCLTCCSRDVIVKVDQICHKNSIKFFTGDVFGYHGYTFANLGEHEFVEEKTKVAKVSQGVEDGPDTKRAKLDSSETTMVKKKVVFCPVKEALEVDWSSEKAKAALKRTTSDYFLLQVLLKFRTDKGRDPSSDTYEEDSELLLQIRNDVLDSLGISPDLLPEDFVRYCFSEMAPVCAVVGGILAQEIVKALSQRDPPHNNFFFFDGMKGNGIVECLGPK
T3 sequence (Q9UBT2 whole entry): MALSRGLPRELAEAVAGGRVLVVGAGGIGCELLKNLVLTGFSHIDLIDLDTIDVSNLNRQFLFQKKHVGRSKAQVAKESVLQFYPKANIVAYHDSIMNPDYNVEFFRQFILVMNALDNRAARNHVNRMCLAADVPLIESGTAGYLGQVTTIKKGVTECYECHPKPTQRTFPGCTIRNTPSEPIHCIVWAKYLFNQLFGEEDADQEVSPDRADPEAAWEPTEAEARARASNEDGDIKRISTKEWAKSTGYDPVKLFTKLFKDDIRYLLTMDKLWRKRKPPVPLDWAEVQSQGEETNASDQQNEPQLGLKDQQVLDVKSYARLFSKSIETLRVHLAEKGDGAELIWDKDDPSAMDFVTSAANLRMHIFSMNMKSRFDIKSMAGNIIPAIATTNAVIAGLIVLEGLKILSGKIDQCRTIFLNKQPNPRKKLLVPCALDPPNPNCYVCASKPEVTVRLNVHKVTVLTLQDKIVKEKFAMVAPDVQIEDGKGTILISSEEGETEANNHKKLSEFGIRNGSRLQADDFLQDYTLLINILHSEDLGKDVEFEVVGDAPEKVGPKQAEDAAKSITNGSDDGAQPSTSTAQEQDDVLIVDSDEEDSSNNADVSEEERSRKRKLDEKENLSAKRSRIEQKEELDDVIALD
For data set [6], the target named is T3, SUMO-activating enzyme. The data set can be described thus: inhibitors of in vitro SUMOylation cascade, primary screen, biochemical, HTRF, uHTS (AID 2006). Type of data set: protein-complex assay. A general note: In TR-FRET formats the signal depends on donor and acceptor labels being close together.
For the next data set, the target named is SUMO E1/E2 (Homo sapiens, UniProt P63279+Q9UBE0+Q9UBT2). Briefly: SAR analysis of SUMOylation using HTRF in an in-Vitro dose response assay. [Related pubchem assays (depositor defined):AID2006, AID2011, AID2018, AID2069, AID2658]. Type of data set: functional.
Sequence of SUMO E1/E2 (Q9UBE0 whole entry, the tested form may be a part): as the sequence (Q9UBE0 whole entry) above
Sequence of SUMO E1/E2 (Q9UBT2 whole entry, the tested form may be a part): as the sequence (Q9UBT2 whole entry) above
Sequence of SUMO E1/E2 (P63279 whole entry, the tested form may be a part): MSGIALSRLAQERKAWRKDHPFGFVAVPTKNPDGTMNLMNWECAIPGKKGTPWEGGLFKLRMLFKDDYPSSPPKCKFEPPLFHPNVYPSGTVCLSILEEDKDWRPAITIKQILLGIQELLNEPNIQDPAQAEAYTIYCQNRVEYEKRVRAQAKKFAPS
The target of data set [7] is T4, Carboxy-terminal domain RNA polymerase II polypeptide A small phosphatase 1 (Homo sapiens, UniProt Q9GZU7).
T4 sequence (Q9GZU7 whole entry): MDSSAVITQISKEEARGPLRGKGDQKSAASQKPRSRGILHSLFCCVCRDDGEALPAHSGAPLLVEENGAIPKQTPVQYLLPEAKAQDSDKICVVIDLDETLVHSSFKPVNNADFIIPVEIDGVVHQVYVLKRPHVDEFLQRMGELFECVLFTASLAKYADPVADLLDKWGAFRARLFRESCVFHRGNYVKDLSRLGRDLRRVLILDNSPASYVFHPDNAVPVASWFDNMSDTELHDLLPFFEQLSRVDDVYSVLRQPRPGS
The data set can be described thus: inhibitors of CTDSP1, concentration-response testing, biochemical assay, absorbance-based, actives from ultra-high-throughput screening (AID 540297). Type of data set: functional.

Data set [8] relates to HEK293. Briefly: cells. Conditions: Homo sapiens.
The test system of data set [9] is HEK293. The data set can be described thus: cells. Conditions: Homo sapiens. This is another data set of the same source.
Data set [10] deals with T5, Replicative DNA helicase DnaB (Mycobacterium tuberculosis, UniProt P9WMR3).
T5 sequence (P9WMR3 whole entry): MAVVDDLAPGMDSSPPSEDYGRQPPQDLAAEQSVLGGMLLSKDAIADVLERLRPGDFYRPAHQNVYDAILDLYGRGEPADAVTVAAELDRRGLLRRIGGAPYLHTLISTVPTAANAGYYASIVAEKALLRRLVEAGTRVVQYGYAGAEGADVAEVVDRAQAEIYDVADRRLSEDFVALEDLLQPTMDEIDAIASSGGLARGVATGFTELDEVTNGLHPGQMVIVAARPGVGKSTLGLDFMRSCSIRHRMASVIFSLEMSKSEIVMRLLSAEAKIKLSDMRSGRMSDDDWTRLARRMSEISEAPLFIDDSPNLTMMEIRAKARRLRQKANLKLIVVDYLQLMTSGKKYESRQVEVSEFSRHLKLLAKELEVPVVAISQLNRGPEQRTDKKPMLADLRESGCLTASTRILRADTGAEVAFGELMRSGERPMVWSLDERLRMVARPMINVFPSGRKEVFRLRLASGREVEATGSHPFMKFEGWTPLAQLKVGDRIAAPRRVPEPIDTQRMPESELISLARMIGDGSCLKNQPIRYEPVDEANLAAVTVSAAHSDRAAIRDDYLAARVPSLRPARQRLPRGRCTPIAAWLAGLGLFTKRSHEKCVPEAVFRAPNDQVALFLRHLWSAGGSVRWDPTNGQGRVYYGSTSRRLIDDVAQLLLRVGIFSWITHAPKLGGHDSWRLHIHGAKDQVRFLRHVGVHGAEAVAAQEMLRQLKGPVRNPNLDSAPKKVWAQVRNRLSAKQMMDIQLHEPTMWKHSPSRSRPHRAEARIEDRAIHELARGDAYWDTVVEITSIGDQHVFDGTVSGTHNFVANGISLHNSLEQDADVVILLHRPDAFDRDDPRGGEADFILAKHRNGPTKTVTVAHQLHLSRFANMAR
The data set can be described thus: DnaB intein splicing inhibitors, dose response, biochemical, cell-free fluorescence (AID 449749). Type of data set: functional.

A further data set concerns the target T6, Protein RecA (Mycobacterium tuberculosis, UniProt P9WHJ3).
T6 sequence (P9WHJ3 whole entry): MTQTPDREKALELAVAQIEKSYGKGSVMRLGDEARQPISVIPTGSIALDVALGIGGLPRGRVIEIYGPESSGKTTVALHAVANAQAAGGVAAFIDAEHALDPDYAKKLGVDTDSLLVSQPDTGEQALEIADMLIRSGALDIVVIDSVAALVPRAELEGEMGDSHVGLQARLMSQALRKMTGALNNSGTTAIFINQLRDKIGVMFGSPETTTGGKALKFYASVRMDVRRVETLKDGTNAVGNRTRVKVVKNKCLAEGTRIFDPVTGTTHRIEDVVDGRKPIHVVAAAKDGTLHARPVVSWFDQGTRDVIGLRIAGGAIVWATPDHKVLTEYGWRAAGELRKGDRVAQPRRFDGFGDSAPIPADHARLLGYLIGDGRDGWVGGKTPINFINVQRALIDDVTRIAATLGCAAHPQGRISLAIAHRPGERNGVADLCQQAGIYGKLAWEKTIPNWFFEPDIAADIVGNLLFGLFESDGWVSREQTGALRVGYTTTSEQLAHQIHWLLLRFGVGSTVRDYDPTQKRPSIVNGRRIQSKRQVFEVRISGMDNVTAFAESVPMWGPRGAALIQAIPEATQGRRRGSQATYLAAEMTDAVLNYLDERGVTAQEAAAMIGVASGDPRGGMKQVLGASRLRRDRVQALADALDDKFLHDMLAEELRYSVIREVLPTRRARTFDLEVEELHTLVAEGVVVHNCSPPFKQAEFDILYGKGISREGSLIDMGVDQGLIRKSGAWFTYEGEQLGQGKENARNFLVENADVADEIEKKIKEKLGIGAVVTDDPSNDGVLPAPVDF
Briefly: Fluorescence Cell-Free Homogeneous Dose Retest to Identify Inhibitors of RecA-Intein Splicing Activity. [Related pubchem assays (depositor defined):AID2097, AID2223, AID489010, AID492950]. Type of data set: functional.

A further data set deals with Cytochrome P450 2D6 (Homo sapiens, UniProt P10635).
Sequence of Cytochrome P450 2D6 (P10635 whole entry): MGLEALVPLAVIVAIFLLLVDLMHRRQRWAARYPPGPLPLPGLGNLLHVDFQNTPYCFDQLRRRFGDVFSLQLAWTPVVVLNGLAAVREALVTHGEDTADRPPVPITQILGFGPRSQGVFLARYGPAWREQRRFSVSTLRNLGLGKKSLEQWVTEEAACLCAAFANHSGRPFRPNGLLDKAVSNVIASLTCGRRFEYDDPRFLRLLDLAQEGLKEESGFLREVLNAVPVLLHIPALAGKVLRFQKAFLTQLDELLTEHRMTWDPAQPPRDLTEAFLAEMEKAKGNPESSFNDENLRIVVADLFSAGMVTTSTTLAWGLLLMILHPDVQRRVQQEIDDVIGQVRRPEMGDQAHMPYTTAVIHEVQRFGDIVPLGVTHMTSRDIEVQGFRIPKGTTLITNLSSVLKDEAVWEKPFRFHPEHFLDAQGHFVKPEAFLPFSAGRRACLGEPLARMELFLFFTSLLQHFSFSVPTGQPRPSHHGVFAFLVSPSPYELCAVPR
For another data set, the target named is Cytochrome P450 3A4 (Homo sapiens, UniProt P08684).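 Also: CYP3A4 tested as one member of a cytochrome P450 panel screen.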
Data set [11] has as its target T7, Voltage-gated N-type calcium channel alpha-1B subunit/Amyloid beta A4 precursor protein-binding family A member 1 (Homo sapiens, UniProt Q00975+Q02410). The data set can be described thus: disruptors of Mint-PDZ/N-type channel peptide interaction – biochemical, HTRF, set 2, SAR follow-up (AID 434980). Type of data set: functional.
Data set [12] has as its target T7, Voltage-gated N-type calcium channel alpha-1B subunit/Amyloid beta A4 precursor protein-binding family A member 1. Briefly: disruptors of Mint-PDZ/N-type channel peptide interaction – biochemical, HTRF, SAR follow-up (AID 2489). Format: functional.
Data set [13] concerns the target Glucose-6-phosphate 1-dehydrogenase (Homo sapiens, UniProt P11413). The data set can be described thus: human G6PD enzyme inhibitors, dose response, selectivity assay for P. falciparum G6PD inhibitor project, biochemical, fluorescence (AID 504792). Type of data set: functional.

Molecules are shown by their SMILES. Active and inactive are the calls of the source.

T7 sequence (Q00975 whole entry): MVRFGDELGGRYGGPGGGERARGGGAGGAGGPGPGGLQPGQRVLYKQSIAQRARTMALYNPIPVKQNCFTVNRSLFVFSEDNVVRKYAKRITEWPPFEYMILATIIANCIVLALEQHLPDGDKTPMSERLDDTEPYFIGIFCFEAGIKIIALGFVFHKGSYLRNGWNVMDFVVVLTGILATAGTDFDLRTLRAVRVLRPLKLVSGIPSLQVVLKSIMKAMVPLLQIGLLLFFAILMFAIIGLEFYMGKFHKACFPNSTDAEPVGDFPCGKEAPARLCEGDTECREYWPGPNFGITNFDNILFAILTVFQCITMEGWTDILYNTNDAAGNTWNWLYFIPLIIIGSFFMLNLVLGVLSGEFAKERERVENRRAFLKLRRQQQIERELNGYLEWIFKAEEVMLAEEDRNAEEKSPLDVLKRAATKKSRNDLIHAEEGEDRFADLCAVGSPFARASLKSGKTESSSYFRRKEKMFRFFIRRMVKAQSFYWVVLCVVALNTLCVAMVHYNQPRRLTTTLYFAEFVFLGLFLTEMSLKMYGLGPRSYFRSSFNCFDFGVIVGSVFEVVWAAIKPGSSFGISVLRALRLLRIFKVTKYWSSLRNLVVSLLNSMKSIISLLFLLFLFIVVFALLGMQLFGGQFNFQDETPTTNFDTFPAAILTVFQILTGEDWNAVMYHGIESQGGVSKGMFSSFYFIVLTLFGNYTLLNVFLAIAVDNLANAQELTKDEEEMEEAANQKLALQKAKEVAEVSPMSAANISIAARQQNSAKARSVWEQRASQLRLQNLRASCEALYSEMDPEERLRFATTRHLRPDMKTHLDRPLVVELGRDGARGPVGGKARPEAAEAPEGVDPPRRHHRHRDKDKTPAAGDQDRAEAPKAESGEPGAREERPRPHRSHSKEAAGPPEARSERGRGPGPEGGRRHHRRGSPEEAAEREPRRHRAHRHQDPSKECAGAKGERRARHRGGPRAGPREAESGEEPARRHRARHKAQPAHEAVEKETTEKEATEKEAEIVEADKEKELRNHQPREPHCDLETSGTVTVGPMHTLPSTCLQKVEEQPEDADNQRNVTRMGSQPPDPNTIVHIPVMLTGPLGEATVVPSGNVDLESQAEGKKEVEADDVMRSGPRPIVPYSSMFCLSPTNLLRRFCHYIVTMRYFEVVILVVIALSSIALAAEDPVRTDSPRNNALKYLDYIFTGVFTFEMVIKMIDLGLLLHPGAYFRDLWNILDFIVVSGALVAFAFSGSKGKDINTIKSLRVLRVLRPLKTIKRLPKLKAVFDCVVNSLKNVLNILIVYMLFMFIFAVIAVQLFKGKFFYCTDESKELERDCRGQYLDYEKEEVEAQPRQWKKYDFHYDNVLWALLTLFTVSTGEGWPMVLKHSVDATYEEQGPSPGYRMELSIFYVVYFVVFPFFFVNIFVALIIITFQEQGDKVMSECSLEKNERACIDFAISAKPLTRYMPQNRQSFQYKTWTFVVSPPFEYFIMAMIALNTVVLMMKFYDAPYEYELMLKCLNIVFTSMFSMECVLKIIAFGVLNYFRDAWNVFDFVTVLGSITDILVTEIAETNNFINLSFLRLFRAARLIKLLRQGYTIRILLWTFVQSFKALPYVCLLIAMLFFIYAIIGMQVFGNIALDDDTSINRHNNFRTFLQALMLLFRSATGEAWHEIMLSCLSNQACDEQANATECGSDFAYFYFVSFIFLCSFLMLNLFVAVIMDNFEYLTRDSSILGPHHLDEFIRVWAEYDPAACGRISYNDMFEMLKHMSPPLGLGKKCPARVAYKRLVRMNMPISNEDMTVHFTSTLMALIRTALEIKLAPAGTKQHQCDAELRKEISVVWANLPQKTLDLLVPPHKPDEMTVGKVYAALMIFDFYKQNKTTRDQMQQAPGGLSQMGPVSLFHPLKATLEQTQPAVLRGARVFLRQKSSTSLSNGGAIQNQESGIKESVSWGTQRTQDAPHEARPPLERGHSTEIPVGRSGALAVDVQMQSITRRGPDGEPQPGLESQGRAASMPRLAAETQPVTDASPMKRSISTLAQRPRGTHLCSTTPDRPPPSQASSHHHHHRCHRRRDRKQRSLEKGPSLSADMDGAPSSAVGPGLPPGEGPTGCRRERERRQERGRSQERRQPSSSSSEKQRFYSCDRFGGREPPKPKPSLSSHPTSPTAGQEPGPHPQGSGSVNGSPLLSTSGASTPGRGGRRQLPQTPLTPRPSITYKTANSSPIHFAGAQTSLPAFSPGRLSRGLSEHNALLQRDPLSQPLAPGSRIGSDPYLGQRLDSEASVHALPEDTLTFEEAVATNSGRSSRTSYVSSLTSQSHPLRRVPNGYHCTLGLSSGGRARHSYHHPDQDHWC
T7 sequence (Q02410 whole entry): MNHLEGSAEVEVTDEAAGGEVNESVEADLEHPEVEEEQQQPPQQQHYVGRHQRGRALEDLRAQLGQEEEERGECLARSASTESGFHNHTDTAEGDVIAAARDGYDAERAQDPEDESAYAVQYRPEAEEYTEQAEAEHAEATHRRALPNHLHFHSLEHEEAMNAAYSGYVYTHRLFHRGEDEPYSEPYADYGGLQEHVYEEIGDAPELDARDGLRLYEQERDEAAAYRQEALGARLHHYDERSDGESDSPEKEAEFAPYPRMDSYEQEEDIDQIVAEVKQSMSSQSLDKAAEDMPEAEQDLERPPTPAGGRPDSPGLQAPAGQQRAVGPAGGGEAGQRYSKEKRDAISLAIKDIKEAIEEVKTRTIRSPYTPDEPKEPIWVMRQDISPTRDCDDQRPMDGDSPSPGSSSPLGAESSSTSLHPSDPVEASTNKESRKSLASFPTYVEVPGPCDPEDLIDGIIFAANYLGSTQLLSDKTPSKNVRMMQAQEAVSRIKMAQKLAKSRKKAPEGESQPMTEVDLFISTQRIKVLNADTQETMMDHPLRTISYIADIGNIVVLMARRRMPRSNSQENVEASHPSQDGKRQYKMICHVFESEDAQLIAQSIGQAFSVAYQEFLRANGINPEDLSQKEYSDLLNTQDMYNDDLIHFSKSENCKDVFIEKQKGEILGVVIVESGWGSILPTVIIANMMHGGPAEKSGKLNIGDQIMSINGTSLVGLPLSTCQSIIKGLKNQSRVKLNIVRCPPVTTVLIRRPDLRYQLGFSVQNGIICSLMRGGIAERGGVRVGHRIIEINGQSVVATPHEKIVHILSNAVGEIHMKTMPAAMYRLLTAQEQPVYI

The term IC50 denotes the concentration that gives 50% inhibition. For `O=C(CN1CCN(C(c2ccccc2)c2ccccc2)CC1)NC(=O)NCc1ccco1`, the IC50 was 0.468 µM (active) in data set [1] and 0.439 µM (active) in data set [2].
The EC50 is the concentration giving half of the maximal effect. For `CCOC(=O)c1cnc(-n2nc(C)cc2C)nc1Nc1ccc(C)cc1`, the figures for the IC50 in data set [1], in [2] and in data set [4] were 2.56 µM (active), 7.89 µM (active) and 5.74 µM (not active), respectively. Further, the EC50 in [3] was 3.44 µM (active); on Streptokinase A, > 150 µM (not active); in the data set on Streptococcus it was > 150 µM (not active).
By AC50 is commonly meant the midpoint of the concentration-response curve, whichever way the signal moves. Take `O=C(NCc1ccccc1)c1ccc(Br)o1`: the AC50 with Escherichia coli was 42.9 µM (active).
With `COc1ccccc1NC(=O)Cn1c(O)c(N=NC(=O)c2ccccc2O)c2ccccc21`, the 50% inhibitory concentration (IC50) at SUMO-activating enzyme [5] is 6.52 µM (active); on SUMO-activating enzyme [6] it was 23.8 µM (active); on SUMO E1/E2 it was 71.1 µM (active); in data set [7], 2.74 µM (active).
With `Cc1ccc(OCCn2cnc3c(N)ncnc32)cc1`, the EC50 in the data set on HEK293 [8] and with HEK293 [9] was > 59.6 µM (inactive) each time.
Take `O=C(CSc1ncnc2c1nnn2Cc1ccccc1F)NCC1CCCO1` (configuration not stated): the AC50 in data set [10] was 15 µM (active); in the data set with Escherichia coli it was 58.3 µM (active). Moreover, at Protein RecA, the EC50 was 16.5 µM (active).
Regarding `Cc1sc2ccccc2[n+]1CCC(=O)O`, the AC50 entry at Cytochrome P450 2D6 is given as “inconclusive”.
With `C[C@@H]1/C=C\CC(=O)OC[C@H]2O[C@@H](C=C[C@@H]2O)[C@H](C)/C=C\CC(=O)OC1`, the AC50 was 5.01 µM (inconclusive) at Cytochrome P450 3A4 and “inconclusive” on Cytochrome P450 2D6.
As to `COC(=O)c1ccc(CSc2ncnc3c2sc2nc(N4CCOCC4)c4c(c23)CCCC4)o1`, the EC50 in the data set on HEK293 [8] and with HEK293 [9] was > 59.7 µM (inactive) each time.
On to `O=C(COC(=O)c1cc(-c2ccco2)nc2ccccc12)NCc1ccc(F)cc1`, for which the IC50 at SUMO E1/E2 is 4.64 µM (active); in [11] it was 11.1 µM (active); in [12], 30.4 µM (active).
Consider `Cc1cc(O)nc(N/N=C/c2c(C)nn(-c3ccccc3)c2Cl)n1`, for which, in [13], the IC50 is > 80 µM (inactive).
